Assay results reported in patent US20100298348A1, “Method of Decreasing Ubiquitylated Protein Levels” (priority 2009, published 2010).
Read-outs that look alike come from different tables or passages of the source.

Legend:
[1] = test system: LC3, Beclin 1, LAMP2A, cathepsin D; assay: Western blots of autophagy and lysosomal degradation mediators in 3xTg-AD mouse brain; format: in vivo; settings: 3xTg-AD mice 12 months old, 5 mg/kg/day, 2 months
Method: The concentrations of several proteins involved in these pathways, specifically LC3, Beclin 1 (macroautophagy), LAMP2A (chaperone mediated autophagy), and cathepsin D (lysosomal protease) were measured in Western blots from 3xTg-AD mouse brains (FIG. 18, extracts from the same animals used in Examples 15-17.

BACE = assay: Western blot of BACE in cynomolgus monkey hippocampus; format: in vivo; settings: male cynomolgus monkeys, 9 months oral, 100 mg/kg/day
Method: Male cynomolgus monkeys were treated for 9 months with 0, 10, 30 or 100 mg/kg/day ST101 with once daily oral drug administration. Hippocampal brain samples were analyzed in Western blots and ELISAs for APP fragments and Aβ. […] Reductions in a ˜55-kDa fragment were also seen with treatment in these groups. Black outlines depict image level enhancement in Adobe Photoshop CS4, to better visualize weak signals. […] However, long exposures reveal the presence of the 17-kDa APP fragment only in treated monkeys (antibody CT20, Calbiochem). This fragment was not detected in either the 30 or 10 mg/kg/day ST101 groups. Error bars indicate SEM (standard error of the mean) and * indicates statistical significance versus control (p<0.05). (S: ST101-treated animals, versus C: control animals).

ubiquitylated proteins [2] = assay: Anti-ubiquitin Western blot of 3xTg-AD mouse brain; format: in vivo
Method: Brain extracts from 12-month-old 3xTg-AD mice that had been treated with ST101 (S) at 5/mg/kg/day in drinking water over 2 months were analyzed in Western blots using an anti-ubiquitin antibody (Dako no. Z0448). […] The control (C) samples show a typical high molecular weight “smear” representing a mixture of ubiquitylated proteins.

α-tubulin = assay: Western blot of α-tubulin and acetylated α-tubulin in 3xTg-AD mouse brain; format: in vivo; settings: 3xTg-AD mice 12 months old, 5 mg/kg/day, 2 months
Excerpt: The overexposed band near the bottom of the figure represents α-tubulin. Above this band a ladder of immuno-reactive bands was detected by the antibody.

ADAM10 = assay: Western blot of ADAM10 in 3xTg-AD mouse brain; format: in vivo; settings: 3xTg-AD mice ~12 months old, 5 mg/kg/day, 2 months
Method: APP C-terminal fragments C99 and C83 are created by beta-secretase and alpha-secretase cleavage respectively. The reduction of both C99 and C83 induced by ST101 could therefore be due to reduction or inhibition of secretases. This hypothesis was tested using Western blots of brain extracts from 3xTg-AD mice from the initial experiment in 12-month-old animals treated with ST101 for 2 months. The only beta-secretase is BACE1 and the constitutive alpha-secretase is ADAM10.
(§1) Western blots were probed with antibodies against BACE1 and ADAM10. FIG. 11A is a series of Western blots depicting levels of proADAM10, ADAM10, proBACE, BACE, Presenilinl and APP-CFTs in brain extracts from ST101 treated 3×TG-AD mice (S) versus control mice (C). C: control brain extract. S: ST101-treated brain extract. Animals were approximately 12 months old at sacrifice after 2 months of treatment with ST101 at 5 mg/kg/day.

Aβ1-40 = assay: Aβ in cynomolgus monkey brain after six-month chronic toxicity study; format: in vivo; settings: juvenile cynomolgus monkeys, 10 mg/kg/day by naso-gastric tube, 6 months
Method: Brain samples from cynomolgus monkeys were obtained at the conclusion of a six-month chronic toxicity study. The cynomolgus monkeys used in this study were juveniles of less than 4 years of age. ST101 was administered daily for 6 months by naso-gastric tube at 10 mg/kg/day (n=8 per group). Data was generated from 8 treated and 8 control animals. Levels of Aβ1-40 are shown in FIG. 9, which is a bar graph that depicts the effect of ST 101 on Aβ in brain tissue from cynomolgus monkeys. FIG. 9 depicts the amount of levels of Aβ1-40 in monkeys treated with ST 101, relative to control monkeys.

SAM-P8 mice = settings: vs control mice, cited from earlier work
Presenilin 1 = assay: Western blot of Presenilin 1 in 3xTg-AD mouse brain; format: in vivo; settings: 3xTg-AD mice ~12 months old, 5 mg/kg/day, 2 months
Method: as §1

[3] = test system: acetylcholine (ACh) and dopamine; assay: Acetylcholine and dopamine release and extracellular concentrations
ubiquitylated proteins [4] = assay: Anti-ubiquitin Western blot of C57/B6 wildtype mouse brain; format: in vivo; settings: C57/B6 wildtype mice, 5 mg/kg/day in drinking water, 2 months
Method: Brain extracts from 2 month-old C57/B6 wildtype mice that had been treated with ST101 at 5/mg/kg/day in drinking water over 2 months were analyzed in Western blots using an anti-ubiquitin antibody (Dako no. Z0448).

acetylated alpha-tubulin = assay: Western blot of acetylated alpha-tubulin in cynomolgus monkey hippocampus; format: in vivo; settings: cynomolgus monkeys of Example 19, hippocampal brain samples
Excerpt: The effects on tubulin were confirmed in the group of cynomolgus monkeys described in example 19.

tau [5] = assay: Tau immunohistochemistry with H7 antibody in 3xTg-AD mice; format: in vivo, mouse
Excerpt: The 3xTg-AD mouse model incorporates both pathological hallmarks of Alzheimer's disease: Aβ amyloid plaques and neurofibrillary tangles. Neurofibrillary tangles consist of accumulates of abnormally phosphorylated tau protein. In the 3xTg-AD mice pathological somato-dendritic accumulation of tau can be seen in immunohistochemistry as part of the disease model phenotype.
ST101 effects on tau distribution and accumulation were explored in immunohistochemistry with H7 anti-tau antibody.

tau [6] = assay: Western blot of tau species in 3xTg-AD mouse brain; format: in vivo; settings: 3xTg-AD mice ~12 months old, 5 mg/kg/day, 2 months, overexposed blot
Excerpt: The status of tau phosphorylation, accumulation and degradation can be assessed in Western blots. Two anti-tau antibodies, directed against non-phosphorylated and phosphorylated tau, were used to probe brain extracts from the initial experiment. FIG. 12 is a series of Western blots depicting levels of full-length tau, tau accumulates, tau degradation products and phosphorylated tau levels in brain extracts from ST101 treated 3×TG-AD mice (S) versus control mice (C). Beta actin levels (Ac) were used as a loading control. P-tau, two panels per antibody: top—normal exposure; bottom—overexposure to visualize minor protein bands. Ac: beta actin antibody as protein loading control. Animals were approximately 12 months old at sacrifice after 2 months of treatment with ST101 at 5 mg/kg/day.

Question: With `O=C1N=C2C=CC=CN2C12Cc1ccccc1C2` [ST101, spiro(imidazo[1,2-a]pyridin-2(3H)-one-3,2′-indan)] as the molecule, how does the “Beclin 1 concentration” value [1] read?
Answer: did not reveal any obvious differences

Question: What about the LAMP2A concentration [1] of the same molecule?
Answer: did not reveal any obvious differences

Question: And the LC3 concentration [1]?
Answer: did not reveal any obvious differences

Question: And the “cathepsin D concentration” value [1]?
Answer: did not reveal any obvious differences

Question: And the BACE level (BACE)?
Answer: no differences

Question: What about the ubiquitylated proteins (ubiquitylated proteins [2]; 3xTg-AD mice 12 months old, 5 mg/kg/day in drinking water, 2 months) of the same molecule?
Answer: profound reduction

Question: What about the monomeric ubiquitin concentrations (ubiquitylated proteins [2]; 3xTg-AD mice 12 months old, 5 mg/kg/day, 2 months, data not shown) of the same molecule?
Answer: largely unaffected

Question: What about the ubiquitylated proteins (ubiquitylated proteins [2]; 3xTg-AD mice 14.5 months old, 5 mg/kg/day, ~2.5 months) of the same molecule?
Answer: significant reduction

Question: What about the tubulin degradation products (α-tubulin; acetylated α-tubulin antibody) of the same molecule?
Answer: reduced

Question: What about the “high molecular weight ladder of α-tubulin immuno-reactive bands (presumably ubiquitylated tubulin)” value (α-tubulin; α-tubulin antibody) of the same molecule?
Answer: either absent or significantly reduced

Question: And the ADAM-10 protein level (ADAM10)?
Answer: not significantly affected

Question: What about the pro-ADAM10 protein level (ADAM10) of the same molecule?
Answer: profound reduction

Question: And the “Aβ1-40 levels in brain” value (Aβ1-40)?
Answer: reduction of Aβ1-40 in animals treated with ST101 that did not reach statistical significance

Question: What about the senescence scores (SAM-P8 mice; 16 weeks of treatment) of the same molecule?
Answer: significant improvement

Question: And the senescence scores (SAM-P8 mice; 32 weeks of treatment)?
Answer: significant improvement

Question: And the “Presenilin 1 level” value (Presenilin 1)?
Answer: did not show significant changes

Question: What about the “nicotine-stimulated release of acetylcholine (ACh)” value [3] of the same molecule?
Answer: potentiates

Question: What about the “extracellular ACh concentrations” value ([3]; cerebral cortex) of the same molecule?
Answer: increases

Question: And the “extracellular concentration of ACh” value ([3]; hippocampus)?
Answer: increases

Question: And the “extracellular concentration of dopamine” value ([3]; hippocampus)?
Answer: increases

Question: And the ubiquitylated proteins (ubiquitylated proteins [4])?
Answer: modest reduction

Question: What about the acetylated alpha-tubulin fragments (acetylated alpha-tubulin) of the same molecule?
Answer: reduction

Question: What about the “neuronal loss, Hematoxylin/Eosin stained control sections” value (tau [5]) of the same molecule?
Answer: no neuronal loss

Question: What about the “pathological somato-dendritic tau staining” value (tau [5]; hippocampus, H7 anti-tau antibody) of the same molecule?
Answer: clear reduction

Question: And the “accumulated tau and degradation products” value (tau [6]; H7 antibody)?
Answer: disappearance

Question: What about the “phosphorylated tau degradation product” value (tau [6]; R-p-tau antibody) of the same molecule?
Answer: appearance of a new phosphorylated tau degradation product
